According to patent publication US10308667B2, “Oxadiazolopyridine derivatives for use as ghrelin O-acyl transferase (GOAT) inhibitors” (Boehringer Ingelheim International GmbH, priority 2016, dated 2019):

The molecules below were run against human GOAT (Homo sapiens (Human), UniProt Q96T53) (assay: Determination of hGOAT Activity in HEK293 Cells after Incubation with Test Compound). Conditions: HEK293 cells stably transfected with preproghrelin and human GOAT; octanoate-BSA 100 μM; acyl-ghrelin in medium by ELISA after 5 hours.
Format: cell-based
Method: Determination of hGOAT Activity in HEK293 Cells after Incubation with Test Compound
HEK293 cells stably transfected with two expression vectors, one coding for preproghrelin cDNA and a second for the expression of human GOATcDNA are used as a cellular model. After feeding the cells with octanoic acid for 5 hours, acyl-ghrelin is measured in cell culture medium by an ELISA procedure.
Cellline: Hek293 hGOAT/PPGhrl Clone #1B8Sodium octanoate, Sigma, Cat.-No. C5038
BD Poly-D-Lysin 384-well Plates, black-clear polystyrene BD Bioscience Cat.-No. […] ELISA human acylated Ghrelin Kit purchased from Bertin Pharman (detailed composition of buffers e.g. wash-puffer, ELISA buffer not known)
Cells are plated with a density of 5000 cells/well in 384-well poly-D-lysin plates and incubated for 1 day at 37° C., 5% CO2 in DMEM medium, 10% FCS, 1×NEAA, Puromycin (0.5 μg/ml) and G418 (1 mg/ml). Then the medium is changed to a identical medium without FCS and containing Octanoate-BSA (final concentration 100 μM each) and compound in DMSO (final DMSO concentration 0.3%). After incubation for 5 hours acylghrelin in the medium is measured by ELISA
The medium sample is diluted 1:25 in Elisa buffer, A 25 ul aliquot is transferred to a 384-well ELISA plate previously washed 4 times with 100 μL wash buffer, and 25 μl tracer-solution is added. After incubation overnight (˜20 h) at 4° C. temperature the plate is washed 4 times with 100 μl wash-buffer per well. Finally 50 μl Ellman's reagent is added to each well and the plate is incubated in the dark for 20 minutes. The absorbance is measured at 405 nm in an Envision multilabel reader and the amount of acylated ghrelin is calculated according to a acylated ghrelin standard curve provided in the same plate.
The analysis of the data is performed by calculation of the percentage of acyl-ghrelin produced in the presence of test compound compared to the amount of acyl-ghrelin produced in the vehicle control samples. An inhibitor of the GOAT enzyme will give values between 100% CTL (no inhibition) and 0% CTL (complete inhibition). IC50 values are calculated with Assay Explorer or other suited software based on curve fitting of results of 8 different compound concentrations.

Sequence of human GOAT (Q96T53 whole entry): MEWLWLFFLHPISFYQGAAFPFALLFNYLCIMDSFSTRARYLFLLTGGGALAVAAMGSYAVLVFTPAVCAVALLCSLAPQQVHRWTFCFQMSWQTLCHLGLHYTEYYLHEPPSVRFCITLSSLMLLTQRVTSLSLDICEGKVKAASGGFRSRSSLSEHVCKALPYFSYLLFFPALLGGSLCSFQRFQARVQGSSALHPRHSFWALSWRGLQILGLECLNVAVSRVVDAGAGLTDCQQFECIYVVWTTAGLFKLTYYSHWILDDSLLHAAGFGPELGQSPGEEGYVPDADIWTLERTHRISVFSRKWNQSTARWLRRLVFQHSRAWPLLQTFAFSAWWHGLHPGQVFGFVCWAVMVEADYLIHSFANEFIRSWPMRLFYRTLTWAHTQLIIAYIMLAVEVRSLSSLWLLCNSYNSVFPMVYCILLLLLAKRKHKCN

Structure (SMILES) | IC50
Cc1nc2nonc2c(N)c1Cc1cc(C#N)ccn1 [Example 28, 2-(7-Amino-5-methyl-[1,2,5]oxadiazolo[3,4-b]pyridin-6-ylmethyl)-isonicotinonitrile] | 48 nM
Cc1nc2nonc2c(N)c1Cc1ccc(C#N)c(OC(F)F)n1 [Example 73, 6-(7-Amino-5-methyl-[1,2,5]oxadiazolo[3,4-b]pyridin-6-ylmethyl)-2-difluoromethoxy-nicotinonitrile] | 0.33 nM
Cc1nc2nonc2c(N)c1Cc1ccc(Br)c(OCC(C)(F)F)n1 [Example 99, 6-[5-Bromo-6-(2,2-difluoro-propoxy)-pyridin-2-ylmethyl]-5-methyl-[1,2,5]oxadiazolo[3,4-b]pyridin-7-ylamine] | 0.072 nM
Cc1nc2nonc2c(N)c1Cc1cccc(S(C)(=O)=O)n1 [Example 86, 6-(6-Methanesulfonyl-pyridin-2-ylmethyl)-5-methyl-[1,2,5]oxadiazolo[3,4-b]pyridin-7-ylamine] | 19 nM
CSc1ccc(Cc2c(C)nc3nonc3c2N)nc1 [Example 44, 5-Methyl-6-(5-methylsulfanyl-pyridin-2-ylmethyl)-[1,2,5]oxadiazolo[3,4-b]pyridin-7-ylamine] | 0.17 nM
Cc1nc2nonc2c(N)c1Cc1ccc(C#N)c(OCCC(F)(F)F)n1 [Example 110, 6-(7-Amino-5-methyl-[1,2,5]oxadiazolo[3,4-b]pyridin-6-ylmethyl)-2-(3,3,3-trifluoro-propoxy)-nicotinonitrile] | 0.28 nM
Cc1nc2nonc2c(N)c1Cc1ccc(C#N)c(Cl)n1 [Example 24, 6-(7-Amino-5-methyl-[1,2,5]oxadiazolo[3,4-b]pyridin-6-ylmethyl)-2-chloro-nicotinonitrile] | 0.12 nM
Cc1nc2nonc2c(N)c1Cc1ccc(C2CC2)cn1 [Example 39, 6-[(5-cyclopropylpyridin-2-yl)methyl]-5-methyl-[1,2,5]oxadiazolo[3,4-b]pyridin-7-amine] | 0.18 nM
Cc1nc2nonc2c(N)c1Cc1cccc(C(C)(C)C#N)n1 [Example 63, 2-[6-(7-Amino-5-methyl-[1,2,5]oxadiazolo[3,4-b]pyridin-6-ylmethyl)-pyridin-2-yl]-2-methyl-propionitrile] | 0.48 nM
Cc1nc2nonc2c(N)c1Cc1ccc(C#N)c(N2CC(C)(O)C2)n1 [Example 138, 6-(7-Amino-5-methyl-[1,2,5]oxadiazolo[3,4-b]pyridin-6-ylmethyl)-2-(3-hydroxy-3-methyl-azetidin-1-yl)-nicotinonitrile] | 0.075 nM
Cc1nc2nonc2c(N)c1Cc1ccc(C#N)c(C#N)n1 [Example 158, 6-(7-Amino-5-methyl-[1,2,5]oxadiazolo[3,4-b]pyridin-6-ylmethyl)-pyridine-2,3-dicarbonitrile] | 1.7 nM
Cc1nc2nonc2c(N)c1Cc1ncc(C#N)cn1 [Example 77, 2-(7-amino-5-methyl-[1,2,5]oxadiazolo[3,4-b]pyridin-6-ylmethyl)pyrimidine-5-carbonitrile] | 3.8 nM
Cc1nc2nonc2c(N)c1Cc1ccc(C#N)c(NCC2(C)COC2)n1 [Example 135, 6-(7-Amino-5-methyl-[1,2,5]oxadiazolo[3,4-b]pyridin-6-ylmethyl)-2-[(3-methyl-oxetan-3-ylmethyl)-amino]-nicotinonitrile] | 0.2 nM
Cc1nc2nonc2c(N)c1Cc1ccc(C#N)c(NCC2(C)CCOC2)n1 (stereo not shown) [Example 147, 6-(7-Amino-5-methyl-[1,2,5]oxadiazolo[3,4-b]pyridin-6-ylmethyl)-2-[(3-methyl-tetrahydro-furan-3-ylmethyl)-amino]-nicotinonitrile] | 0.25 nM
COC(=O)Cc1ccc(Cc2c(C)nc3nonc3c2N)nc1 [Example 10, [6-(7-Amino-5-methyl-[1,2,5]oxadiazolo[3,4-b]pyridin-6-ylmethyl)-pyridin-3-yl]-acetic Acid Methyl Ester] | 13 nM
Cc1nc2nonc2c(N)c1Cc1ccc(C(C)(F)F)cn1 [Example 11, 6-[5-(1,1-Difluoro-ethyl)-pyridin-2-ylmethyl]-5-methyl-[1,2,5]oxadiazolo[3,4-b]pyridin-7-ylamine] | 0.13 nM
Cc1nc2nonc2c(N)c1Cc1ccc(C#N)c(NC2CC2)n1 [Example 139, 6-(7-Amino-5-methyl-[1,2,5]oxadiazolo[3,4-b]pyridin-6-ylmethyl)-2-cyclopropylamino-nicotinonitrile] | 0.02 nM

Structure (SMILES) | IC50
Cc1nc2nonc2c(N)c1Cc1ccc(Br)c(NCC(C)(C)C#N)n1 [Example 127, 3-[6-(7-Amino-5-methyl-[1,2,5]oxadiazolo[3,4-b]pyridin-6-ylmethyl)-3-bromo-pyridin-2-ylamino]-2,2-di methyl-propionitrile] | 0.1 nM
Cc1nc2nonc2c(N)c1Cc1ncc(C#N)c(C(C)(F)F)n1 [Example 82, 2-(7-amino-5-methyl-[1,2,5]oxadiazolo[3,4-b]pyridin-6-ylmethyl)-4-(1,1-difluoroethyl)pyrimidine-5-carbonitrile] | 1 nM
Cc1nc2nonc2c(N)c1Cc1ccc(Br)c(N2CC(C)(O)C2)n1 [Example 122, 1-[6-(7-Amino-5-methyl-[1,2,5]oxadiazolo[3,4-b]pyridin-6-ylmethyl)-3-bromo-pyridin-2-yl]-3-methyl-azetidin-3-ol] | 0.033 nM
Cc1nc2nonc2c(N)c1Cc1ccc(C#N)cn1 [Example 4, 6-(7-Amino-5-methyl-[1,2,5]oxadiazolo[3,4-b]pyridin-6-ylmethyl)-nicotinonitrile] | 1.7 nM
Cc1nc2nonc2c(N)c1Cc1ncc(C(F)(F)F)c(Cl)n1 [Example 50, 6-[4-chloro-5-(trifluoromethyl)pyrimidin-2-yl]methyl-5-methyl-[1,2,5]oxadiazolo[3,4-b]pyridin-7-amine] | 2.5 nM
Cc1nc2nonc2c(N)c1Cc1ccc(C#N)c(OCC(C)(C)O)n1 [Example 105, 6-(7-Amino-5-methyl-[1,2,5]oxadiazolo[3,4-b]pyridin-6-ylmethyl)-2-(2-hydroxy-2-methyl-propoxy)-nicotinonitrile] | 0.12 nM
Cc1nc2nonc2c(N)c1Cc1ccc(-c2cnccn2)c(N)n1 [Example 69, 6-(6-Amino-5-pyrazin-2-yl-pyridin-2-ylmethyl)-5-methyl-[1,2,5]oxadiazolo[3,4-b]pyridin-7-ylamine] | 0.58 nM
Cc1nc2nonc2c(N)c1Cc1ccc(C#N)c(NCCC(F)(F)F)n1 [Example 145, 6-(7-Amino-5-methyl-[1,2,5]oxadiazolo[3,4-b]pyridin-6-ylmethyl)-2-(3,3,3-trifluoro-propylamino)-nicotinonitrile] | 0.32 nM
Cc1nc2nonc2c(N)c1Cc1ccc(C#N)c(OCC(F)F)n1 [Example 109, 6-(7-Amino-5-methyl-[1,2,5]oxadiazolo[3,4-b]pyridin-6-ylmethyl)-2-(2,2-difluoro-ethoxy)-nicotinonitrile] | 0.093 nM
Cc1nc2nonc2c(N)c1Cc1ccc(C#N)c(OCC2(C)COC2)n1 [Example 111, 6-(7-Amino-5-methyl-[1,2,5]oxadiazolo[3,4-b]pyridin-6-ylmethyl)-2-(3-methyl-oxetan-3-ylmethoxy)-nicotinonitrile] | 0.1 nM
Cc1nc2nonc2c(N)c1Cc1ccc(C#N)c(OC2COC2)n1 [Example 104, 6-(7-Amino-5-methyl-[1,2,5]oxadiazolo[3,4-b]pyridin-6-ylmethyl)-2-(oxetan-3-yloxy)-nicotinonitrile] | 0.98 nM
Cc1nc2nonc2c(N)c1Cc1cccc(F)n1 [Example 13, 6-(6-Fluoro-pyridin-2-ylmethyl)-5-methyl-[1,2,5]oxadiazolo[3,4-b]pyridin-7-ylamine] | 4.4 nM
Cc1nc2nonc2c(N)c1Cc1ccc(Br)c(=O)[nH]1 [Example 163, 6-(7-Amino-5-methyl-[1,2,5]oxadiazolo[3,4-b]pyridin-6-ylmethyl)-3-bromo-1H-pyridin-2-one] | 2.5 nM
Cc1nc2nonc2c(N)c1Cc1cc(Cl)c(C(F)(F)F)cn1 [Example 20, 6-(4-Chloro-5-trifluoromethyl-pyridin-2-ylmethyl)-5-methyl-[1,2,5]oxadiazolo[3,4-b]pyridin-7-ylamine] | 0.17 nM
Cc1nc2nonc2c(N)c1Cc1ccccn1 [Example 58, 5-methyl-6-[(pyridin-2-yl)methyl]-[1,2,5]oxadiazolo[3,4-b]pyridin-7-amine] | 2.8 nM
Cc1nc2nonc2c(N)c1Cc1cccc(-c2cn(C)nc2C(F)(F)F)n1 [Example 61, 5-Methyl-6-[6-(1-methyl-3-trifluoromethyl-1H-pyrazol-4-yl)-pyridin-2-ylmethyl]-[1,2,5]oxadiazolo[3,4-b]pyridin-7-ylamine] | 0.29 nM
Cc1nc(Cc2c(C)nc3nonc3c2N)ncc1C#N [Example 81, 2-(7-amino-5-methyl-[1,2,5]oxadiazolo[3,4-b]pyridin-6-ylmethyl)-4-methylpyrimidine-5-carbonitrile] | 7 nM
